Earlier results in patent US20130011354A1, “Compositions For Enhancing Hair Growth” (Allergan, Inc., priority 2009, published 2013).

Tested on: eyelashes
Details: Lumigan ophthalmic solution applied in the FDA approved manner for glaucoma

Structure (SMILES): CCNC(=O)CCC/C=C\C[C@@H]1[C@@H](/C=C/[C@@H](O)CCc2ccccc2)[C@H](O)C[C@@H]1O [Bimatoprost, cyclopentane N-ethyl heptanamide-5-cis-2-(3α-hydroxy-5-phenyl-1-trans-pentenyl)-3,5-dihydroxy, [1α,2β,3α,5α]]
- growth of eyelashes: effective to increase the growth of eyelashes
